Measured values published in patent US20170136008A1, “OXABICYCLOHEPTANES AND OXABICYCLOHEPTENES FOR THE TREATMENT OF OVARIAN CANCER” (priority 2014, published 2017).

What was measured:
[1] = test system: SKOV-3/f-Luc intraperitoneal xenografts; test: In vivo intraperitoneal ovarian cancer model; parameters: species or system mouse
Description: Five- to seven-week-old female nude athymic mice (nu/nu) were obtained from NCI (Frederick, Md.), maintained in accredited animal facilities and used as stipulated by the U.S. Public Health Service Policy on Humane Care and Use of Laboratory Animals, in accordance with institutional reviews (http://oacu.odnih.gov). 10^6 SKOV-3/f-Luc cells were suspended in 100 μL PBS and injected into the intraperitoneal (i.p.) cavity. […] Following tumor inoculation, mice were dosed on days 4, 6, 8, 10, 12 and 14. Dose and treatment schedule were established based on the activity of each agent reported in previous studies (Wei, D. et al. 2013; Lu, J. et al. 2009; Mabuchi, S. et al. 2007). […] Tumor growth was measured twice a week via bioluminescence imaging (BLI) as previously described (Bakhsheshian, J. et al. 2013). D-Luciferin (150 mg/kg, 3 mg/100 μL PBS) was administered via I.P. injection. Relative intensity of the BLI signal for each mouse was calculated by dividing the total luminescence for each session by the total luminescence measured on day 1 of treatment. Mice were continuously observed until indicated euthanasia endpoints (e.g. significant weight loss, ascites). Toxicity of the treatment regimens was assessed by the degree of weight loss and the overall health status was continuously monitored by a veterinarian on staff. […] After 4 h, mice were euthanized and tumors were dissected from the intraperitoneal cavity, snap-frozen in liquid nitrogen, and lysed as described above.
Tumors were established in nude athymic female mice via i.p. injection of SKOV-3 cells transfected with firefly luciferase. […] Following the final treatment, mice were observed until pre-determined health concerns necessitated euthanization. Dose and treatment schedules were determined from biologic profiles of each agent determined in previous studies (Wei, D. et al. 2013; Lu, J. et al. 2009; Mabuchi, S. et al. 2009) and disease progression was monitored by BLI.

[2] = test system: OVCAR-8 ovarian cancer cells; test: MTT cytotoxicity assay, OVCAR-8; assay type: cell-based, human; conditions: Homo sapiens, OVCAR-8, OVCAR8, read-out: IC50, viability of ovarian cancer cell line
Description: (§1) SKOV-3 ovarian cancer cells were purchased from American Type Culture Collection (ATCC) (Manassas, Va.). SKOV-3 cells were cultured in McCoy's 5A medium (ATCC, Manassas, Va.) supplemented with 10% fetal bovine serum and 100 units/mL penicillin G sodium, 100 ug/mL streptomycin sulfate, and 292 μg/ml, L-glutamine (BioWhittaker, Wakersville, Md.). Luciferase-expressing cells were generated by infecting SKOV-3 cells with pCLNCX-luciferase retrovirus (SKOV-3-Luc) as previously reported (Wei, B. R. et al. 2009). Human OVCAR-8 ovarian cancer cells were provided by the National Cancer Institute (part of the NCI-60 collection). The PEO1, PEO4, and PEO6 ovarian cancer cell lines have previously been characterized (Langdon, S. P. et al. 1988) and were kindly provided by Dr. Ian Goldlust (National Center for Advancing Translational Sciences, Shady Grove, Md.). […]
(§2) Cell survival was measured by the 3-(4,5-dimethylthiazol-2-yl)-2,5-diphenyltetrazolium bromide (MTT, Invitrogen) assay. […] Absorbance values were determined at […] on a Spectra Max 250 spectrophotometer (Molecular Devices, Sunnyvale, Calif.). […] Cell viability was analyzed via the MTT assay as described above. […]

[3] = test system: ovarian cancer cell lines; test: MTT cytotoxicity assay, ovarian cancer cell line panel; assay type: cell-based; conditions: Homo sapiens, SK-OV-3; ovarian lines other than SKOV-3
Description: (§3) Cell survival was measured by the 3-(4,5-dimethylthiazol-2-yl)-2,5-diphenyltetrazolium bromide (MTT, Invitrogen) assay. Cells were seeded at a density of 5,000 cells per well in 96-well plates and incubated at 37° C. in humidified 5% CO2 for 24 hours. The 50% inhibitory concentration (IC50) values were defined as the drug concentrations required to reduce cellular proliferation to 50% of the untreated control well. […] All MTT assays were carried out according to the manufacturer's instructions (Molecular Probes, Eugen, Oreg.). Absorbance values were determined at […] on a Spectra Max 250 spectrophotometer (Molecular Devices, Sunnyvale, Calif.). All MTT assays were performed in triplicate. […] Cells were treated with both drugs for 72 h. Cell viability was analyzed via the MTT assay as described above. Experiments were performed in triplicate, and the data are presented as a percent mean±SD.
SKOV-3 and OVCAR-8 cells have previously been described as p53 null and harboring an inactivating p53 mutation, respectively (Debernardis, D. et al. 1997). […] The […] carry a BRCA2 missense (n) and STOP (s) mutation, respectively (Langdon, S. P. et al. 1988).

[4] = test system: PEO4 ovarian cancer cell line; test: MTT cytotoxicity assay, PEO4; assay type: cell-based, human; conditions: Homo sapiens, PEO4, read-out: IC50, viability of ovarian cancer cell line
Description: as §1, §2

[5] = test system: OVCAR-8 PP2Ac shRNA-expressing cells; test: Cell viability (MTT) assay, OVCAR-8 PP2Ac shRNA; assay type: cell-based, human; conditions: Homo sapiens; OVCAR-8 PP2Ac shRNA (knockdown)
Description: as §3
To stably knockdown expression of PP2AC, a pLKO.1-puro plasmid-based […] shRNA targeting the sequence: […] (clone ID:TRCN0000002483, Sigma-Aldrich) was employed (PP2AC-shRNA). Additionally, a non-targeting shRNA plasmid (NT-shRNA) that targets no known human sequence was utilized as a control. […]

[6] = test system: SKOV-3 ovarian cancer cells; test: MTT cytotoxicity assay, SKOV-3; assay type: cell-based, human

Which “day by which massive ascites developed, necessitating euthanasia” value ([1]; LB100 alone 1.5 mg/kg i.p.) does the source give for `CN1CCN(C(=O)C2C(C(=O)O)[C@H]3CC[C@@H]2O3)CC1` (stereo partly drawn) [LB100] here?
Its value is at most 25 days.

And the “tumor growth as assessed by BLI” value ([1]; LB100 alone 1.5 mg/kg i.p.)?
Its value is “did not alter tumor growth”.

What about the “relative intensity of BLI signal (vs day 1 of treatment)” value ([1]; day 25, each drug 1.5 mg/kg i.p., 6 doses every other day, LB100 1 h before cisplatin in combination) of the same compound?
The value was 12.4±6.7.

What about the IC50 [2] of the same compound?
Its IC50 is 5.5 ± 0.5 µM.

And the IC50 [3]?
Its IC50 is 5.7 µM.

What about the IC50 [4] of the same compound?
The IC50 was 5 ± 0.6 µM.

What about the IC50 [5] of the same compound?
The IC50 was 3.9 ± 0.9 µM.

What about the IC50 ([6]; Homo sapiens, SK-OV-3, SK-OV3, MTT, read-out: IC50, viability of ovarian cancer cell line) of the same compound?
Its IC50 is 10.1 ± 1.6 µM.

And the “fold less sensitive compared to the other ovarian lines” value ([6]; SKOV-3 vs other ovarian lines)?
Its value is 2 fold.
